From US12384789B2, “Compounds for treating Huntington's disease” (PTC Therapeutics, Inc., priority 2017, dated 2025)

Test system: Endogenous Huntingtin Protein
Assay: Endogenous Huntingtin Protein Assay (Meso Scale Discovery ELISA-based electrochemiluminescence)
Format: cell-based
Conditions: MSD electrochemiluminescence, Table 1
In short: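 MSD electrochemiluminescence sandwich ELISA: MW1 (expanded polyQ) or MAB2166 capture antibody at 1 μg/mL, samples incubated overnight at 4° C. Detection with rabbit monoclonal #5656S then SULFO-TAG anti-rabbit antibody, each 0.25 μg/mL for 1 h at room temperature.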

Row | Compound | IC50
1 | CCc1cc(-c2cc(F)c3cc(C4CCNCC4)nnc3c2)nc2cn(C)nc12 [Compound 172, 7-(7-ethyl-2-methyl-2H-pyrazolo[4,3-b]pyridin-5-yl)-5-fluoro-3-(piperidin-4-yl)cinnoline] | ≤ 100 nM
2 | Cc1cn2nc(-c3cc(F)c4cc(C5C[C@@H](C)N(CCF)[C@@H](C)C5)nnc4c3)cc(C)c2n1 (stereo partly drawn) [Compound 170, 7-(2,8-dimethylimidazo[1,2-b]pyridazin-6-yl)-5-fluoro-3-[(2R,6S)-1-(2-fluoroethyl)-2,6-dimethylpiperidin-4-yl]cinnoline] | 100 to 500 nM
3 | Cc1cn2nc(-c3cc(F)c4cc(N5CCC6(CC5)CNC6)nnc4c3)cc(C)c2n1 [Compound 219, 3-(2,7-diazaspiro[3.5]nonan-7-yl)-7-(2,8-dimethylimidazo[1,2-b]pyridazin-6-yl)-5-fluorocinnoline] | ≤ 100 nM
4 | CCN1CCC(c2cc(F)c3nc(-c4cc(F)c5nn(C)cc5c4)ncc3c2)CC1 [Compound 202, 6-(1-ethylpiperidin-4-yl)-8-fluoro-2-(7-fluoro-2-methyl-2H-indazol-5-yl)quinazoline] | ≤ 100 nM
5 | CCN1CCC(c2ccc3cc(-c4cc(C)c5nc(C)cn5n4)cc(F)c3n2)CC1 [Compound 48, 6-(2,8-dimethylimidazo[1,2-b]pyridazin-6-yl)-2-(1-ethylpiperidin-4-yl)-8-fluoroquinoline] | ≤ 100 nM
6 | Cc1cc(-c2ccc3nc(C4CCNCC4)ncc3c2F)cc2cn(C)nc12 [Compound 38, 6-(2,7-dimethyl-2H-indazol-5-yl)-5-fluoro-2-(piperidin-4-yl)quinazoline] | 1000 to 3000 nM
7 | Cc1cc(-c2cc(F)c3nc(C4CCNCC4)ncc3c2)cc2cn(C)nc12 [Compound 34, 6-(2,7-dimethyl-2H-indazol-5-yl)-8-fluoro-2-(piperidin-4-yl)quinazoline] | ≤ 100 nM
8 | CCN1CCC(c2cc3ccc(-c4cc(C)c5nc(C)cn5n4)cc3nn2)CC1 [Compound 85, 7-(2,8-dimethylimidazo[1,2-b]pyridazin-6-yl)-3-(1-ethylpiperidin-4-yl)cinnoline] | 100 to 500 nM
9 | Cc1cn2nc(-c3cc(F)c4cc(C5CCNCC5)nnc4c3)cc(CC#N)c2n1 [Compound 187, {6-[5-fluoro-3-(piperidin-4-yl)cinnolin-7-yl]-2-methylimidazo[1,2-b]pyridazin-8-yl}acetonitrile] | ≤ 100 nM
10 | Cn1cc2cc(-c3cc(F)c4cc(C5CCNCC5)nnc4c3)c(F)cc2n1 [Compound 97, 5-fluoro-7-(6-fluoro-2-methyl-2H-indazol-5-yl)-3-(piperidin-4-yl)cinnoline] | 500 to 1000 nM
11 | Cc1cn2nc(-c3cc(F)c4cc(C5CCNCC5)nnc4c3)cc(OCCn3cccn3)c2n1 [Compound 140, 5-fluoro-7-{2-methyl-8-[2-(1H-pyrazol-1-yl)ethoxy]imidazo[1,2-b]pyridazin-6-yl}-3-(piperidin-4-yl)cinnoline] | ≤ 100 nM
12 | Cc1cn2nc(-c3cc(F)c4cc(N5C[C@@H]6C[C@H]5CN6C)nnc4c3)cc(C)c2n1 [Compound 215, 7-(2,8-dimethylimidazo[1,2-b]pyridazin-6-yl)-5-fluoro-3-[(1S,4S)-5-methyl-2,5-diazabicyclo[2.2.1]heptan-2-yl]cinnoline] | ≤ 100 nM
13 | Cc1cn2nc(-c3nnc4cc(C5CCNCC5)cc(F)c4n3)cc(C)c2n1 [Compound 57, 3-(2,8-dimethylimidazo[1,2-b]pyridazin-6-yl)-5-fluoro-7-(piperidin-4-yl)-1,2,4-benzotriazine] | ≤ 100 nM
14 | CCN1CCC(c2cc3c(F)cc(-c4cc(CC#N)c5nc(C)cn5n4)cc3nn2)CC1 [Compound 205, {6-[3-(1-ethylpiperidin-4-yl)-5-fluorocinnolin-7-yl]-2-methylimidazo[1,2-b]pyridazin-8-yl}acetonitrile] | 100 to 500 nM
15 | Cc1cn2nc(-c3cc(F)c4cc(C5CCN(C)CC5)nnc4c3)cc(CO)c2n1 [Compound 180, {6-[5-fluoro-3-(1-methylpiperidin-4-yl)cinnolin-7-yl]-2-methylimidazo[1,2-b]pyridazin-8-yl}methanol] | ≤ 100 nM
16 | Cc1cn2cc(-c3cc(F)c4nc(C5CCNCC5)nnc4c3)cc2c(C)n1 [Compound 64, 7-(1,3-dimethylpyrrolo[1,2-a]pyrazin-7-yl)-5-fluoro-3-(piperidin-4-yl)-1,2,4-benzotriazine] | ≤ 100 nM
17 | COc1cc(-c2nnc3cc(C4CCNCC4)ccc3n2)cc2cn(C)nc12 [Compound 52, 3-(7-methoxy-2-methyl-2H-indazol-5-yl)-7-(piperidin-4-yl)-1,2,4-benzotriazine] | ≤ 100 nM
18 | Cc1cc(-c2cc(F)c3nc(N(C)C4CCNCC4)nnc3c2)cc2cn(C)nc12 [Compound 42, 7-(2,7-dimethyl-2H-indazol-5-yl)-5-fluoro-N-methyl-N-(piperidin-4-yl)-1,2,4-benzotriazin-3-amine] | 100 to 500 nM
19 | CCN1CCC(c2cc3c(F)cc(-c4cn5cc(C)nc(C)c5n4)cc3nn2)CC1 [Compound 119, 7-(6,8-dimethylimidazo[1,2-a]pyrazin-2-yl)-3-(1-ethylpiperidin-4-yl)-5-fluorocinnoline] | 500 to 1000 nM

Row | Compound | IC50
20 | Cc1cn2nc(-c3cc(F)c4cc(C5CCNCC5)nnc4c3)cc(OCCN(C)C)c2n1 [Compound 138, 2-({6-[5-fluoro-3-(piperidin-4-yl)cinnolin-7-yl]-2-methylimidazo[1,2-b]pyridazin-8-yl}oxy)-N,N-dimethylethan-1-amine] | 100 to 500 nM
21 | COCCNc1cc(-c2cc(F)c3nc(C4CCNCC4)ccc3c2)nn2cc(C)nc12 [Compound 54, 6-[8-fluoro-2-(piperidin-4-yl)quinolin-6-yl]-N-(2-methoxyethyl)-2-methylimidazo[1,2-b]pyridazin-8-amine] | 100 to 500 nM
22 | Cc1cn2nc(-c3cc(F)c4cc(C5CCCNCC5)nnc4c3)cc(C)c2n1 (centres unmarked) [Compound 129, 3-(azepan-4-yl)-7-(2,8-dimethylimidazo[1,2-b]pyridazin-6-yl)-5-fluorocinnoline] | ≤ 100 nM
23 | Cn1cc2cc(-c3cc(F)c4cc(C5CCNCC5)nnc4c3)cc(F)c2n1 [Compound 96, 5-fluoro-7-(7-fluoro-2-methyl-2H-indazol-5-yl)-3-(piperidin-4-yl)cinnoline] | ≤ 100 nM
24 | Cc1cn2nc(-c3cc(F)c4cc(C5CCN(C)CC5)nnc4c3)cc(C#N)c2n1 [Compound 176, 6-[5-fluoro-3-(1-methylpiperidin-4-yl)cinnolin-7-yl]-2-methylimidazo[1,2-b]pyridazine-8-carbonitrile] | ≤ 100 nM
25 | CCN1CCCC(c2cc3c(F)cc(-c4cc(C)c5nc(C)cn5n4)cc3nn2)CC1 (centres unmarked) [Compound 189, 7-(2,8-dimethylimidazo[1,2-b]pyridazin-6-yl)-3-(1-ethylazepan-4-yl)-5-fluorocinnoline] | ≤ 100 nM
26 | Cc1cn2nc(-c3cc(F)c4cc(C5CCNCC5)nnc4c3)cc(CO)c2n1 [Compound 107, {6-[5-fluoro-3-(piperidin-4-yl)cinnolin-7-yl]-2-methylimidazo[1,2-b]pyridazin-8-yl}methanol] | ≤ 100 nM
27 | Cc1cn2nc(-c3cc4c(F)cc(C5=CCNCC5)cc4nn3)cc(C)c2n1 [Compound 167, 3-(2,8-dimethylimidazo[1,2-b]pyridazin-6-yl)-5-fluoro-7-(1,2,3,6-tetrahydropyridin-4-yl)cinnoline] | ≤ 100 nM
28 | Cc1cn2nc(-c3cc(F)c4nc(C5CCNCC5)ncc4c3)cc(C)c2n1 [Compound 37, 6-(2,8-dimethylimidazo[1,2-b]pyridazin-6-yl)-8-fluoro-2-(piperidin-4-yl)quinazoline] | ≤ 100 nM
29 | Cc1cc(-c2ccc3nc(C4=CC(C)(C)NC(C)(C)C4)ccc3c2)cc2cn(C)nc12 [Compound 13, 6-(2,7-dimethyl-2H-indazol-5-yl)-2-(2,2,6,6-tetramethyl-1,2,3,6-tetrahydropyridin-4-yl)quinoline] | 1000 to 3000 nM
30 | Cc1cn2nc(-c3cc(F)c4cc(C5CCN(CCCn6cccn6)CC5)nnc4c3)cc(C)c2n1 [Compound 160, 7-(2,8-dimethylimidazo[1,2-b]pyridazin-6-yl)-5-fluoro-3-{1-[3-(1H-pyrazol-1-yl)propyl]piperidin-4-yl}cinnoline] | ≤ 100 nM
31 | Cc1cn2nc(-c3cc(F)c4cc(C5CC6CC[C@@H](C5)N6)nnc4c3)cc(C)c2n1 (stereo partly drawn) [Compound 169, 3-[(1R,3r,5S)-8-azabicyclo[3.2.1]octan-3-yl]-7-(2,8-dimethylimidazo[1,2-b]pyridazin-6-yl)-5-fluorocinnoline] | ≤ 100 nM
32 | Cc1cn2nc(-c3cc(F)c4cc(C5CCCN(C)CC5)nnc4c3)cc(C)c2n1 (centres unmarked) [Compound 188, 7-(2,8-dimethylimidazo[1,2-b]pyridazin-6-yl)-5-fluoro-3-(1-methylazepan-4-yl)cinnoline] | ≤ 100 nM
33 | CCN1CCC(c2cc(F)c3cc(-c4cc(C)c5nn(C)cc5c4)nnc3c2)CC1 [Compound 183, 3-(2,7-dimethyl-2H-indazol-5-yl)-7-(1-ethylpiperidin-4-yl)-5-fluorocinnoline] | ≤ 100 nM
34 | CCN1CCC(c2cnc3cc(-c4cc(C)c5nc(C)cn5n4)cc(F)c3n2)CC1 [Compound 110, 6-(2,8-dimethylimidazo[1,2-b]pyridazin-6-yl)-2-(1-ethylpiperidin-4-yl)-8-fluoroquinoxaline] | ≤ 100 nM
35 | Cc1cc(-c2cc3c(F)cc(C4=CCCNCC4)cc3nn2)cc2cn(C)nc12 [Compound 198, 3-(2,7-dimethyl-2H-indazol-5-yl)-5-fluoro-7-(2,3,6,7-tetrahydro-1H-azepin-4-yl)cinnoline] | 100 to 500 nM
36 | Cn1cc2cc(-c3cc(F)c4cc(C5CCNCC5)nnc4c3)cc(C#N)c2n1 [Compound 104, 5-[5-fluoro-3-(piperidin-4-yl)cinnolin-7-yl]-2-methyl-2H-indazole-7-carbonitrile] | ≤ 100 nM
37 | Cc1cn2nc(-c3cc(F)c4cc(C5C[C@H](C)N[C@@H](C)C5)nnc4c3)cc(C)c2n1 (stereo partly drawn) [Compound 87, 7-(2,8-dimethylimidazo[1,2-b]pyridazin-6-yl)-3-[(2S,6S)-2,6-dimethylpiperidin-4-yl]-5-fluorocinnoline] | ≤ 100 nM
38 | Cn1cc2cc(-c3cc(F)c4nc(C5CCNCC5)nnc4c3)cc(F)c2n1 [Compound 32, 5-fluoro-7-(7-fluoro-2-methyl-2H-indazol-5-yl)-3-(piperidin-4-yl)-1,2,4-benzotriazine] | ≤ 100 nM
